Source: US20240279221A1, “HETEROCYCLIC COMPOUNDS AND METHODS OF USE” (Schrödinger, Inc., priority 2021, published 2024)

Key:
human SOS1 = human SOS1 (Homo sapiens (Human), UniProt Q07889); experiment: Surface Plasmon Resonance (SPR) SOS1 Binding Assay; details: biotinylated SOS1 (res. 564-1049), 25° C., kinetic or steady state fit, read-out: KD for hSOS1
Description: Binding to SOS1 was measured using a SPR assay with purified recombinant human SOS1 substrate (res. 564-1049 with N-terminal Avi tag; purified and biotinylated based on Hillig, et al., Proc Natl Acad Sci USA (2019); 116(7):2551-2560). SPR measurements were performed on a Biacore 8K SPR instrument (GE Healthcare, Sweden). Assays were performed at 25° C. using Series S SA sensor chips pre-coated with streptavidin (GE Healthcare, Cat. BR100531). Biotinylated SOS1 diluted in sample buffer (20 mM Tris HCl, 150 mM NaCl, 1 mM DTT, 0.05% TWEEN 20, 1 mM MgCl2, pH 8.0) was captured to one flow cell of the chip to about 3,000 resonance units (RU) using sample buffer supplemented with 5% DMSO as a running buffer. Serial dilutions of the assayed compounds in the running buffer at 100, 50 or 0.5 μM were injected for 60 s at a flow rate of 30 μL/min and association phases were recorded. Dissociation of the samples was monitored for 600 s. Data processing was performed using Biacore Insight Software (Biacore, GE Healthcare). Sensorgrams recorded on a SA flow cell without captured protein were subtracted from sensorgrams recorded on the SOS1 surface. Blank injections of running buffer were used for double referencing and solvent correction was applied to all sample sensorgrams to correct for buffer mismatches. KDs were estimated using a kinetic or steady state, where applicable, fitting model describing a reversible equilibrium with 1:1 binding between SOS1 and the compound.

[1] = target: SOS1:KRAS (G12C) interaction (Homo sapiens (Human), UniProt Q07889); experiment: SOS1-KRas(G12C) FRET Assay; format: binding; details: 0.5 nM His10-SOS1 (res. 564-1049), 2.5 nM GST-KRAS (res. 1-169, G12C); read-out: SOS-KRas(G12C) FRET IC50
Sequence of SOS1:KRAS (G12C) interaction (Q07889 564-1049, stated change not applied): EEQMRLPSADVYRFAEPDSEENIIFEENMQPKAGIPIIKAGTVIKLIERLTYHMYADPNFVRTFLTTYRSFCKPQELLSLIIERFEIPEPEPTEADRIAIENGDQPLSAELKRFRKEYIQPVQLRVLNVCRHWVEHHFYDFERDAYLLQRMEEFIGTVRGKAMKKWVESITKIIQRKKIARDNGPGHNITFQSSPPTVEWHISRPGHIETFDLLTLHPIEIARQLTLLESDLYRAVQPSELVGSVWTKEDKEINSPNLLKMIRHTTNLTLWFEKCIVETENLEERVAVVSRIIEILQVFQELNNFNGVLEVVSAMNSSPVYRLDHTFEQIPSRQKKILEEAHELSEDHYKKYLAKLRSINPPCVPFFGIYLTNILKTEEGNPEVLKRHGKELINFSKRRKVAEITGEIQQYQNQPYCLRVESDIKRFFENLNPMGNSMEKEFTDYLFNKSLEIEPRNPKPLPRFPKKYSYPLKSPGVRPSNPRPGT
In short: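 Compounds were pre-incubated 15 min at 25° C with SOS1 (His10, res. 564-1049; 0.5 nM final) and anti-6His-XL665, then GST-KRAS G12C (res. 1-169; 2.5 nM final) with anti-GST-Eu(K) was added for 2 h at RT. The buffer was PBS, 0.1% BSA, 5 mM MgCl2, 100 mM KF, 5 mM DTT with 0.5% DMSO. The 665/615 nm signal was normalised to DMSO and no-SOS1 controls, and IC50 and Hill coefficient were fitted by non-linear regression.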

Sequence of human SOS1 (Q07889 564-1049): as the sequence (Q07889 564-1049, stated change not applied) above

Row | Kd (human SOS1) [nM] | IC50 [1] [nM] | SMILES
1 | 43 | 160 | C[C@@H](Nc1nn(C)c(=O)c2cc(=O)n([C@@H]3CCCOC3)cc12)c1cccc(C(F)F)c1F (single isomer, unassigned) [Example 39]
2 | 76 | 272 | C[C@@H](Nc1nn(C)c(=O)c2cc(=O)n([C@@]3(C)CCOC3)cc12)c1cccc(C(F)F)c1F (single isomer, unassigned) [Example 52]
3 | 7 | 30.3 | C[C@@H](Nc1nn(C)c(=O)c2cc(=O)n([C@]3(C)CCOC3)cc12)c1cccc(C(F)F)c1F (single isomer, unassigned) [Example 53]
4 | 15 | 32.7 | COc1c(=O)n([C@@H]2CCOC[C@@H]2F)cc2c(N[C@H](C)c3cccc(C(F)F)c3F)nn(C)c(=O)c12 (single isomer, unassigned) [Example 58]
5 | 441 | 1040 | COc1c(=O)n([C@H]2CCOC[C@H]2F)cc2c(N[C@H](C)c3cccc(C(F)F)c3F)nn(C)c(=O)c12 (single isomer, unassigned) [Example 59]
6 | 43 | 129 | COc1c(=O)n([C@H]2CCOC[C@@H]2F)cc2c(N[C@H](C)c3cccc(C(F)F)c3F)nn(C)c(=O)c12 (single isomer, unassigned) [Example 60]
7 | 10 | 25.9 | COc1c(=O)n([C@@H]2CCOC[C@H]2F)cc2c(N[C@H](C)c3cccc(C(F)F)c3F)nn(C)c(=O)c12 (single isomer, unassigned) [Example 61]
8 | 11 | 48.7 | C[C@@H](Nc1nn(C)c(=O)c2cc(=O)n([C@H]3CCOC(C)(C)C3)cc12)c1cccc(C(F)F)c1F (single isomer, unassigned) [Example 83]
9 | 28 | 229 | C[C@@H](Nc1nn(C)c(=O)c2cc(=O)n([C@@H]3CCOC(C)(C)C3)cc12)c1cccc(C(F)F)c1F (single isomer, unassigned) [Example 84]
10 | 44 | 161 | COc1c(=O)n(C2CC2)cc2c(N[C@H](C)c3cccc(C(F)(F)F)c3C)nn(C)c(=O)c12 [Example 6, (R)-6-cyclopropyl-8-methoxy-2-methyl-4-((1-(2-methyl-3-(trifluoromethyl)phenyl)ethyl)amino)-2,6-dihydropyrido[3,4-d]pyridazine-1,7-dione]
11 | 31 | 248 | C[C@@H](Nc1nn(C)c(=O)c2cc(=O)n(C3CC3)cc12)c1cccc(C(F)F)c1F [Example 17, (R)-6-cyclopropyl-4-((1-(3-(difluoromethyl)-2-fluorophenyl)ethyl)amino)-2-methyl-2,6-dihydropyrido[3,4-d]pyridazine-1,7-dione]

Second part, the molecule before the results:

Row | SMILES | Kd (human SOS1) [nM] | IC50 [1] [nM]
12 | C[C@H](Nc1nn(C)c(=O)c2cc(=O)n(C3CCOCC3)cc12)c1cccc(C(F)(F)[C@@H]2CCCO2)c1F (single isomer, unassigned) [Example 44] | > 5000 | 5810
13 | C[C@@H](Nc1nn(C)c(=O)c2cc(=O)n(C3CCOCC3)cc12)c1cccc(C(F)(F)[C@@H]2CCCO2)c1F (single isomer, unassigned) [Example 45] | 10 | 23.4
14 | Cc1c([C@@H](C)Nc2nn(C)c(=O)c3cc(=O)n([C@@]4(C)CCOC4)cc23)cccc1C(F)(F)F (single isomer, unassigned) [Example 54] | 125 | 285
15 | Cc1c([C@@H](C)Nc2nn(C)c(=O)c3cc(=O)n([C@]4(C)CCOC4)cc23)cccc1C(F)(F)F (single isomer, unassigned) [Example 55] | 14 | 32.2
16 | Cc1c([C@@H](C)Nc2nn(C)c(=O)c3cc(=O)n(C4CC4)cc23)cccc1C(F)(F)F [Example 2, (R)-6-cyclopropyl-2-methyl-4-((1-(2-methyl-3-(trifluoromethyl)phenyl)ethyl)amino)-2,6-dihydropyrido[3,4-d]pyridazine-1,7-dione] | 57 | 328
17 | Cc1c([C@@H](C)Nc2nn(C)c(=O)c3c(Br)c(=O)n(C4CC4)cc23)cccc1C(F)(F)F [Example 3, (R)-8-bromo-6-cyclopropyl-2-methyl-4-((1-(2-methyl-3-(trifluoromethyl)phenyl)ethyl)amino)-2,6-dihydropyrido[3,4-d]pyridazine-1,7-dione] | 63 | 345
18 | Cc1c([C@@H](C)Nc2nn(C)c(=O)c3cc(=O)n(C4CCOCC4)cc23)cccc1C(F)(F)F [Example 4, (R)-2-methyl-4-((1-(2-methyl-3-(trifluoromethyl)phenyl)ethyl)amino)-6-(tetrahydro-2H-pyran-4-yl)-2,6-dihydropyrido[3,4-d]pyridazine-1,7-dione] | 22 | 54.6
19 | C[C@@H](Nc1nn(C)c(=O)c2cc(=O)n(C3CCOCC3)cc12)c1cccc(C(F)(F)F)c1 [Example 5, (R)-2-methyl-6-(tetrahydro-2H-pyran-4-yl)-4-((1-(3-(trifluoromethyl)phenyl)ethyl)amino)-2,6-dihydropyrido[3,4-d]pyridazine-1,7-dione] | 22 | 96.4
20 | Cc1c([C@@H](C)Nc2nn(C)c(=O)c3c(C)c(=O)n(C4CC4)cc23)cccc1C(F)(F)F [Example 7, (R)-6-cyclopropyl-2,8-dimethyl-4-((1-(2-methyl-3-(trifluoromethyl)phenyl)ethyl)amino)-2,6-dihydropyrido[3,4-d]pyridazine-1,7-dione] | 259 | 1050
21 | CC(=O)N1CCC(n2cc3c(N[C@H](C)c4cccc(C(F)(F)F)c4C)nn(C)c(=O)c3cc2=O)CC1 [Example 9, (R)-6-(1-acetylpiperidin-4-yl)-2-methyl-4-((1-(2-methyl-3-(trifluoromethyl)phenyl)ethyl)amino)-2,6-dihydropyrido[3,4-d]pyridazine-1,7-dione] | 64 | 286
22 | Cc1c([C@@H](C)Nc2nn(C)c(=O)c3c(C#N)c(=O)n(C4CC4)cc23)cccc1C(F)(F)F [Example 10, (R)-6-cyclopropyl-2-methyl-4-((1-(2-methyl-3-(trifluoromethyl)phenyl)ethyl)amino)-1,7-dioxo-1,2,6,7-tetrahydropyrido[3,4-d]pyridazine-8-carbonitrile] | 136 | 2250
23 | Cc1c([C@@H](C)Nc2nn(C)c(=O)c3c(Cl)c(=O)n(C4CC4)cc23)cccc1C(F)(F)F [Example 11, (R)-8-chloro-6-cyclopropyl-2-methyl-4-((1-(2-methyl-3-(trifluoromethyl)phenyl)ethyl)amino)-2,6-dihydropyrido[3,4-d]pyridazine-1,7-dione] | 95 | 592
24 | Cc1c([C@@H](C)Nc2nn(C)c(=O)c3c(N)c(=O)n(C4CC4)cc23)cccc1C(F)(F)F [Example 12, (R)-8-amino-6-cyclopropyl-2-methyl-4-((1-(2-methyl-3-(trifluoromethyl)phenyl)ethyl)amino)-2,6-dihydropyrido[3,4-d]pyridazine-1,7-dione] | 290 | 1330
25 | Cc1c([C@@H](C)Nc2nn(C)c(=O)c3cc(=O)n([C@H]4C[C@H](O)C4)cc23)cccc1C(F)(F)F [Example 13, 6-((1r,3r)-3-hydroxycyclobutyl)-2-methyl-4-(((R)-1-(2-methyl-3-(trifluoromethyl)phenyl)ethyl)amino)-2,6-dihydropyrido[3,4-d]pyridazine-1,7-dione] | 25 | 99.6
26 | Cc1c([C@@H](C)Nc2nn(C)c(=O)c3cc(=O)n([C@H]4C[C@@H](O)C4)cc23)cccc1C(F)(F)F [Example 14, 6-((1s,3s)-3-hydroxycyclobutyl)-2-methyl-4-(((R)-1-(2-methyl-3-(trifluoromethyl)phenyl)ethyl)amino)-2,6-dihydropyrido[3,4-d]pyridazine-1,7-dione] | 87 | 537
27 | Cc1c([C@@H](C)Nc2nn(C)c(=O)c3cc(=O)n(C4(C)CC4)cc23)cccc1C(F)(F)F [Example 15, (R)-2-methyl-4-((1-(2-methyl-3-(trifluoromethyl)phenyl)ethyl)amino)-6-(1-methylcyclopropyl)-2,6-dihydropyrido[3,4-d]pyridazine-1,7-dione] | 40 | 198
28 | Cc1c([C@@H](C)Nc2nn(C)c(=O)c3cc(=O)n(C45CC(C4)C5)cc23)cccc1C(F)(F)F [Example 16, (R)-6-(bicyclo[1.1.1]pentan-1-yl)-2-methyl-4-((1-(2-methyl-3-(trifluoromethyl)phenyl)ethyl)amino)-2,6-dihydropyrido[3,4-d]pyridazine-1,7-dione] | 84 | 235
